Experimental data as given in patent US8106204B2, “Substituted 2-amino-4-phenyldihydroquinolines, processes for their preparation, pharmaceutical compositions and methods for their use” (Sanofi-Aventis, priority 2006, dated 2012).
Structures can show the parent of a compound that is named as a salt.

Molecular target: T1, NHE-3 (Homo sapiens, UniProt P48764)
T1 sequence (P48764 26-834): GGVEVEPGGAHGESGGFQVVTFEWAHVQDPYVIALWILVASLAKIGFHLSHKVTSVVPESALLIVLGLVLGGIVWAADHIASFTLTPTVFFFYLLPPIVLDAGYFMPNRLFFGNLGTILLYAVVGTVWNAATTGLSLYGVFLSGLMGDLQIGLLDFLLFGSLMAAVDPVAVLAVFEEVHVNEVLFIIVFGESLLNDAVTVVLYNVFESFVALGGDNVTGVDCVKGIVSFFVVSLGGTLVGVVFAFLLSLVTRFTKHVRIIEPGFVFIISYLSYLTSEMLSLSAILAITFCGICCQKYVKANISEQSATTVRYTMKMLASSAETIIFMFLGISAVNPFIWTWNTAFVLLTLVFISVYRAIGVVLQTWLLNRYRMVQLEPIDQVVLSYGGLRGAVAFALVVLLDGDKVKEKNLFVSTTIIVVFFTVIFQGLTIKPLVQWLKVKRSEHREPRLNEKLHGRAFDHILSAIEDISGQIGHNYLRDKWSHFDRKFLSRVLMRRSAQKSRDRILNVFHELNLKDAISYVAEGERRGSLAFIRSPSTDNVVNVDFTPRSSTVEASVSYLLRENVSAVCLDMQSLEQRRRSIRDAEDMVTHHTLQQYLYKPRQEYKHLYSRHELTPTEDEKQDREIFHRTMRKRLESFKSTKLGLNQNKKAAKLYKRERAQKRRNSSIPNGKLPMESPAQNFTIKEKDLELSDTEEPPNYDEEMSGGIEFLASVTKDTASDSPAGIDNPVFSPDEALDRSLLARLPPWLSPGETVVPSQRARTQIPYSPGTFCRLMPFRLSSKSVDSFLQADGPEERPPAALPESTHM
Test: Determination of the NHE-inhibitory effect (recovery of intracellular pH after acidification, BCECF fluorescence)
Assay type: cell-based
Settings: pH recovery recorded for three minutes with NHE-3; BCECF-loaded cells
Experimental: Description of Assay: Determination of the NHE-Inhibitory Effect In this assay, the recovery of the intracellular pH (pHj) after an acidification which occurs even under bicarbonate-free conditions with functional NHE was determined. To this end, the pHj was determined using the pH-sensitive fluorescent dye BCECF (Calbiochem, the precursor BCECF-AM was employed). The cells were initially loaded with BCECF. The BCECF fluorescence was determined in a ratio fluorescence spectrometer (Photon Technology International, South Brunswick, N.J., USA) with excitation wavelengths of 505 and 440 nm and an emission wavelength of 535 nm and converted into the pHj using calibration plots. The cells had been incubated in NH4Cl buffer (pH 7.4) for the BCECF loading (NH4Cl buffer: 115 mM NaCl, 20 mM NH4Cl, 5 mM KCl, 1 mM CaCl2, 1 mM MgSO4, 20 mM Hepes, 5 mM glucose, 1 mg/ml BSA; a pH of 7.4 was adjusted with 1 M NaOH). The intracellular acidification was induced by adding 975 μl of an NH4Cl-free buffer (see below) to 25 μl aliquots of the cells incubated in NH4Cl buffer. The subsequent rate of pH recovery was recorded for two minutes with NHE1, five minutes with NHE2 and three minutes with NHE-3. To calculate the inhibitory power of the tested substances, the cells were initially investigated in buffers with which there was complete or absolutely no pH recovery. For complete pH recovery (100%), the cells were incubated in Na^+-containing buffer (133.8 mM NaCl, 4.7 mM KCl, 1.25 mM CaCl2, 1.25 mM MgCl2, 0.97 mM Na2HPO4, 0.23 mM NaH2PO4, 5 mM Hepes, 5 mM glucose, a pH of 7.0 was adjusted with 1 M NaOH). To determine the 0% value, the cells were incubated in an Na^+-free buffer (133.8 mM choline chloride, 4.7 mM KCl, 1.25 mM CaCl2, 1.25 mM MgCl2, 0.97 mM K2HPO4, 0.23 mM KH2PO4, 5 mM Hepes, 5 mM glucose, a pH of 7.0 was adjusted with 1 M NaOH). The substances to be tested were made up in the Na^+-containing buffer. The recovery of the intracellular pH at each tested concentration of a substance was expressed as a percentage of the maximum recovery. The IC50 of the respective substance for the individual NHE subtypes was calculated from the percentages of pH recovery using the Sigma Plot program.

| SMILES | IC50 |
| --- | --- |
| NC1=Nc2ccc(Cl)cc2C(c2ccc(N)cc2)C1 (stereo not shown) [Example 1, 2-Amino-4-(4-aminophenyl)-6-chloro-3,4-dihydroquinoline hydrochloride] | 4.39 µM |
| CCN(CC)C1=Nc2ccc(Cl)cc2C(c2ccc(N)cc2)C1 (stereo not shown) [Example 3, 4-(4-Aminophenyl)-6-chloro-2-diethylamino-3,4-dihydroquinoline hydrochloride] | 9.19 µM |
| CCN(CC)C1=Nc2ccc(Cl)cc2C(c2ccc(NC(=O)NCCN(C)C)cc2)C1 (stereo not shown) [Example 4, N-(2-Dimethylaminoethyl)-N′-4-[(6-chloro-3,4-dihydro-2-diethyl-aminoquinolin-4-yl)phenyl]urea hydrochloride] | 13.8 µM |
| CCNC1=Nc2ccc(Cl)cc2C(c2ccc(N)cc2)C1 (stereo not shown) [Example 2, 4-(4-Aminophenyl)-6-chloro-2-ethylamino-3,4-dihydroquinoline hydrochloride] | 10.9 µM |
